Measurements: article PMC7582516, “A Novel Series of [1,2,4]Triazolo[4,3-a]Pyridine Sulfonamides as Potential Antimalarial Agents: In Silico Studies, Synthesis and In Vitro Evaluation” (Molecules, 2020)
Converted amounts (≈) assume the structure as drawn.

Experiments:
MRC-5 SV2 cells = assay: Cytotoxicity assay (resazurin); format: cell-based; conditions: Homo sapiens, MRC-5 fibroblast cytotoxicity, 72 h
Description: Stock solutions were prepared in 100% DMSO at 20 mg/mL just prior to screening. […] Reference drugs were either obtained from the fine chemical supplier Sigma or from WHO-TDR. The integrated panel of microbial screens and standard screening methodologies was adopted as previously described. All assays were performed in triplicate at the Laboratory of Microbiology, Parasitology and Hygiene at the University of Antwerp, Belgium. […] The selectivity antiprotozoal potential was assessed by simultaneous evaluation of cytotoxicity on a fibroblast (MRC-5) cell line. […] Cell viability was assessed fluorimetrically after 4 h of addition of resazurin. Fluorescence was measured (excitation 550 nm, emission 590 nm) and the results were expressed as % reduction in cell viability compared to control.

[1] = Solubility in DMSO/Water (practical data); format: physicochemical

| melting point | Solubility [1] | Structure (SMILES) | IC50 (MRC-5 SV2 cells) [µg/mL] |
| --- | --- | --- | --- |
| – | moderately soluble | O=c1n(Cc2cccc(Cl)c2)nc2c(S(=O)(=O)N3CCCCC3)cccn12 [Compound 13a, 2-(3-Chlorobenzyl)-8-(piperidin-1-ylsulfonyl)-[1,2,4]triazolo[4,3-a]pyridin-3(2H)-one] | > 64 |
| 160 to 161 °C | – | O=c1n(Cc2ccc3c(c2)OCO3)nc2c(S(=O)(=O)N3CCCCC3)cccn12 [Compound 13b, 2-(Benzo[d][1,3]dioxol-5-ylmethyl)-8-(piperidin-1-ylsulfonyl)-[1,2,4]triazolo[4,3-a]pyridin-3(2H)-one] | > 64 |
| 221 to 222 °C | – | O=c1n(Cc2cc(F)cc(F)c2)nc2c(S(=O)(=O)N3CCCCC3)cccn12 [Compound 13c, 2-(3,5-Difluorobenzyl)-8-(piperidin-1-ylsulfonyl)-[1,2,4]triazolo[4,3-a]pyridin-3(2H)-one] | > 64 |
| 258 to 260 °C (dec.) | – | O=C1CCCN1c1ccc(Cn2nc3c(S(=O)(=O)N4CCOCC4)cccn3c2=O)cc1 [Compound 13e, 8-(Morpholinosulfonyl)-2-[4-(2-oxopyrrolidin-1-yl)benzyl]-[1,2,4]triazolo[4,3-a]pyridin-3(2H)-one] | > 64 |
| 173 to 174 °C | – | O=c1n(Cc2ccc(Cl)cc2)nc2ccc(S(=O)(=O)N3CCCCC3)cn12 [Compound 13f, 2-(4-Chlorobenzyl)-6-(piperidin-1-ylsulfonyl)-[1,2,4]triazolo[4,3-a]pyridin-3(2H)-one] | > 64 |
| 145 to 146 °C | – | Cc1cccc(Cn2nc3ccc(S(=O)(=O)N4CCC(C)CC4)cn3c2=O)c1 [Compound 13g, 2-(3-Methylbenzyl)-6-(4-methylpiperidin-1-ylsulfonyl)-[1,2,4]triazolo[4,3-a]pyridin-3(2H)-one] | > 64 |
| 150 to 151 °C | – | CC1CCN(S(=O)(=O)c2ccc3nn(Cc4ccccc4F)c(=O)n3c2)CC1 [Compound 13h, 2-(2-Fluorobenzyl)-6-(4-methylpiperidin-1-ylsulfonyl)-[1,2,4]triazolo[4,3-a]pyridin-3(2H)-one] | > 64 |
| 154 to 155 °C | – | O=c1n(Cc2cccc(F)c2)nc2ccc(S(=O)(=O)N3CCSCC3)cn12 [Compound 13i, 2-(3-Fluorobenzyl)-6-(thiomorpholinosulfonyl)-[1,2,4]triazolo[4,3-a]pyridin-3(2H)-one] | > 64 |
| 190 to 191 °C | – | O=c1n(Cc2ccc(F)cc2Cl)nc2ccc(S(=O)(=O)N3CCSCC3)cn12 [Compound 13j, 2-(2-Chloro-4-fluorobenzyl)-6-(thiomorpholinosulfonyl)-[1,2,4]triazolo[4,3-a]pyridin-3(2H)-one] | > 64 |
| 169 to 170 °C | – | COc1ccc(CSc2nnc3c(S(=O)(=O)N4CCCCC4)cccn23)cc1 [Compound 15a, 3-(4-Methoxybenzylthio)-8-(piperidin-1-ylsulfonyl)-[1,2,4]triazolo[4,3-a]pyridine] | > 64 |
| 160 to 162 °C | – | O=S(=O)(c1cccn2c(SCc3cccc(Br)c3)nnc12)N1CCCCC1 [Compound 15b, 3-(3-Bromobenzylthio)-8-(piperidin-1-ylsulfonyl)-[1,2,4]triazolo[4,3-a]pyridine] | > 64 |
| 155 to 156 °C | – | Cc1ccc(CSc2nnc3c(S(=O)(=O)N4CCCCC4)cccn23)cc1 [Compound 15c, 3-(4-Methylbenzylthio)-8-(piperidin-1-ylsulfonyl)-[1,2,4]triazolo[4,3-a]pyridine] | > 64 |
| 143 to 145 °C | – | O=S(=O)(c1cccn2c(SCc3cccc(Cl)c3)nnc12)N1CCCC1 [Compound 15d, 3-(3-Chlorobenzylthio)-8-(pyrrolidin-1-ylsulfonyl)-[1,2,4]triazolo[4,3-a]pyridine] | > 64 |
| 164 to 166 °C | – | O=S(=O)(c1cccn2c(SCc3ccccc3Cl)nnc12)N1CCCC1 [Compound 15e, 3-(2-Chlorobenzylthio)-8-(pyrrolidin-1-ylsulfonyl)-[1,2,4]triazolo[4,3-a]pyridine] | > 64 |
| 113 to 115 °C | – | O=S(=O)(c1cccn2c(SCc3ccc(F)cc3)nnc12)N1CCCc2ccccc21 [Compound 15f, 1-(3-(4-Fluorobenzylthio)-[1,2,4]triazolo[4,3-a]pyridin-8-ylsulfonyl)-1,2,3,4-tetrahydroquinoline] | > 64 |

Continued, compound first:

| Structure (SMILES) | melting point | Solubility [1] | IC50 (MRC-5 SV2 cells) [µg/mL] |
| --- | --- | --- | --- |
| O=S(=O)(c1cccn2cnnc12)N(Cc1cccc(Cl)c1)c1cc(F)cc(F)c1 [Compound 8a, N-(3-chlorobenzyl)-N-(3,5-difluorophenyl)-[1,2,4]triazolo[4,3-a]pyridine-8-sulfonamide] | 160 to 162 °C | – | > 64 |
| Cc1cc(C)cc(N(Cc2cc(C)ccc2C)S(=O)(=O)c2cccn3c(C)nnc23)c1 [Compound 8b, N-(2,5-dimethylbenzyl)-N-(3,5-dimethylphenyl)-3-methyl-[1,2,4]triazolo[4,3-a]pyridine-8-sulfonamide] | – | – | 48.5 (≈ 112 µM) |
| COc1ccc(CN(c2cc(C)cc(C)c2)S(=O)(=O)c2cccn3c(C)nnc23)cc1 [Compound 8c, N-(3,5-dimethylphenyl)-N-(4-methoxybenzyl)-3-methyl-[1,2,4]triazolo[4,3-a]pyridine-8-sulfonamide] | – | – | > 64 |
| COC(=O)c1ccc(CN(c2cccc(C)c2)S(=O)(=O)c2ccc3nnc(C)n3c2)o1 [Compound 8d, Methyl 5-{[3-methyl-N-(3-methylphenyl)-[1,2,4]triazolo[4,3-a]pyridine-6-sulfonamido]methyl}furan-2-carboxylate] | 152 to 154 °C | – | > 64 |
| CCc1nnc2ccc(S(=O)(=O)N(Cc3cccc(F)c3)c3ccc(OC)cc3)cn12 [Compound 8e, 3-Ethyl-N-(3-fluorobenzyl)-N-(4-methoxyphenyl)-[1,2,4]triazolo[4,3-a]pyridine-6-sulfonamide] | – | moderately soluble | 18.2 (≈ 41.3 µM) |
| Cc1cccc(CN(c2ccc(F)cc2)S(=O)(=O)c2ccc3nnc(C)n3c2)c1 [Compound 8f, N-(4-fluorophenyl)-3-methyl-N-(3-methylbenzyl)-[1,2,4]triazolo[4,3-a]pyridine-6-sulfonamide] | 104 to 105 °C | – | > 64 |
| Cc1nnc2ccc(S(=O)(=O)N(Cc3cccc(Cl)c3)c3ccc(F)cc3)cn12 [Compound 8g, N-(3-chlorobenzyl)-N-(4-fluorophenyl)-3-methyl-[1,2,4]triazolo[4,3-a]pyridine-6-sulfonamide] | 107 to 109 °C | – | > 64 |
| Cc1nnc2ccc(S(=O)(=O)N(Cc3ccccc3F)c3cccc(Cl)c3)cn12 [Compound 8h, N-(3-chlorophenyl)-N-(2-fluorobenzyl)-3-methyl-[1,2,4]triazolo[4,3-a]pyridine-6-sulfonamide] | – | – | > 64 |
| Cc1nnc2ccc(S(=O)(=O)N(Cc3ccc(F)cc3)c3ccc(Cl)cc3)cn12 [Compound 8i, N-(4-chlorophenyl)-N-(4-fluorobenzyl)-3-methyl-[1,2,4]triazolo[4,3-a]pyridine-6-sulfonamide] | 198 to 199 °C | – | > 64 |
| O=c1n(Cc2ccccc2Cl)nc2c(S(=O)(=O)N3CCOCC3)cccn12 [Compound 13d, 2-(2-Chlorobenzyl)-8-(morpholinosulfonyl)-[1,2,4]triazolo[4,3-a]pyridin-3(2H)-one] | – | – | > 64 |
